{"source": "patent US20060013804A1", "about": "“Modulation of stem cell differentiation by modulation of caspase-3 activity” (Ottawa Health Research Institute, priority 2002, published 2006)", "key": {"C2C12 myoblasts": {"tested_on": "C2C12 myoblasts", "experiment": "C2C12 myoblast differentiation in low serum media with caspase inhibitors (MF20 staining, immunoblot of myogenic markers)", "assay_type": "cell-based, mouse", "conditions": "20 μM inhibitor; for myotube formation: C2C12, low serum media, MF20 staining, up to 4 days; for myotube formation / myoblast fusion (mononucleated / fused cells): vs DMSO; for myoblast fusion (mononucleated / fused cells) / expression of MEF2C / accumulation of myogenin: C2C12, low serum; for myoblast fusion (mononucleated / fused cells): 4 days; for expression of MEF2C / accumulation of myogenin: Western blot; for expression of MEF2C: vs control; for accumulation of myogenin: vs control myoblasts", "method": "Myoblast culture. C2C12 cell (mouse skeletal muscle myoblast) cultures were grown and maintained in DMEM containing 10% FBS with 50 units/ml penicillin and 50 μg/ml streptomycin (Gibco). Differentiation was induced by incubating cultures in DMEM containing only a low serum concentration (2% horse serum). Caspase activity was measured using a Caspase-3 and Caspase-8 Fluorometric Assay Kit (Pharmingen). […] Control cells were treated with an equivalent amount of vehicle (DMSO). Primary myoblast cells were derived from skeletal muscles of the hind- and fore-limbs from 1-2 day old C57BL/6 wild-type, caspase-3 heterozygous and caspase-3 null mice (Frasch, S. C., et al., (1998) J. Biol. Chem. 273, 8389-8397; Kuida, K., et al., (1996) Nature 384, 368-372) (n=5 for each genotype) as described (Cregan, S. P. et al., (1999) J. Neuro. 19, 7860-7869.). To induce differentiation, primary myoblast cultures were incubated in DMEM containing 5% horse serum.\nProtein isolation, immunoblot analyses and immunocytochemistry. Cells from C2C12 and primary myoblast cultures were washed with ice-cold PBS and lysed on ice for 45 minutes in modified-RIPA buffer containing 20 mM NaF, 5 mM Na3VO4 and 10 μg/ml each of aprotinin, leupeptin, pepstatin and PMSF. Total protein was measured using the BCA protein assay (Pierce). Immunoblot analyses were performed as described (Creasy, C. L., & Chernoff, J. (1995) J. Biol. Chem. 270, 21695-21700) using antibodies for MST1, MKK6, p38γ, and p38α (Upstate), p38 and MEF2C (Cell Signaling Technologies), myogenin F5D and myosin heavy chain MF20 mAb (Developmental Hybridoma Bank), and active caspase-3 (Biovision).\nC2C12 myoblasts were fixed and stained with anti-MF20 as previously described (Cregan, et al., (1999) J. Neuro. 19, 7860-7869). Primary myoblast cultures were fixed in 4% paraformaldehyde, rinsed three times in PBS containing 0.01% Triton X-100 and stained as above. For both C2C12 and primary myoblast cultures, nuclei were detected by incubating cells for 10 min with 4,6-diamidino-2-phenylindole diluted 1:10000 in PBS.\nCells were fixed after 0, 2 and 4 days of differentiation and stained with the myosin heavy chain antibody MF20. […] In contrast, differentiation was more evident in cells that were incubated with caspase-8 inhibitor, z-LETD.fmk (FIG. 2B bottom panel, C)."}, "[1]": {"tested_on": "primary striatal stem cells (neurospheres)", "experiment": "Primary striatal neurospheres with or without caspase-3 inhibitor, immunostaining for neural lineage markers", "assay_type": "cell-based, mouse", "conditions": "1 μM inhibitor", "method": "After sacrificing, the abdomen was sprayed with 70% ethanol. A 2 cm incision is made vertically up the abdomen. The horn was removed with sterile tweezers, and placed in PBS. The horn was cut open the horn to expose one embryo at a time and each embryo was placed in a separate 35 mm tissue culture dish containing 2 ml PBS. Each embryo was pinned to the dish and the cortex peeled off layer by layer to expose the striatum, which was then removed. The striatal tissue was placed in a 50 ml Falcon Tube containing cold Hank's Balanced Salt Solution (HBSS) on ice and the tissue allowed to settle at the bottom of the tube. The HBSS was replaced with 2 ml of Complete Neurocult Proliferation Media and the tissue triturated gently until only a few fragments of tissue remained. The supernatant was then collected and the fragments of tissue were triturated in 1 ml media. The supernatant was again removed and stored with the first supernatant that was collected.\nAt this point the number of cells can be counted using an aliquot of Trypan Blue (1/5 dilution). Cells were seeded at a density of 1 million cells per 25 ml of Complete Proliferation Media and grown in Complete Neurocult Proliferation Media for 4 days, at which time they were expanded if the plates appeared too confluent. If expansion was not necessary, the cells were allowed to grow for a few more days prior to harvesting. To expand the primary culture, half the cell suspension was placed in a new dish and 12.5 ml of Complete Proliferation Media was added to each of the initial plate and the expanded plate. After a few days, once most of the spheres had lifted off the dish, the sphere suspension was confluent. At this time, cells were either passaged in growth media, frozen, or plated onto a differentiation plate.\nPlating and Differentiation of Striatal Stem Cells: In order to differentiate neurospheres, they must be plated onto a surface coated with Laminin and Poly-D-Lysine. The sphere suspension was collected from a 10 cm dish, placed in a 50 ml tube and centrifuged at 500 rpm for 5 min at 4° C. The supernatant was aspirated and discarded, then 2 ml of Complete Neurocult Proliferation Media was added and the sphere pellet gently triturated until the spheres were resuspended. The sphere suspension was then diluted in Complete Neurocult Proliferation Media to obtain the desired concentration (one 10 cm dish of neurospheres is appropriate for approximately 4 coated chamber slides). 2 ml aliquots of sphere suspension were plated per chamber and after a few hours at 37° C., the medium was changed to Complete Neurocult Differentiation media.\nParaformaldehyde (PFA) Fixing of Cells: Freshly made 4% PFA was used. Media was aspirated out of wells and each well was washed with 2 ml PBS for 3 min. […]"}}, "data": [{"smiles": "COC(=O)CC[C@H](NC(=O)[C@H](CC(=O)OC)NC(=O)OCc1ccccc1)C(=O)N[C@H](C(=O)N[C@@H](CC(=O)OC)C(=O)CF)C(C)C", "note": "[z-DEVD.fmk]", "values": [{"measurement": "myotube formation", "setting": "C2C12 myoblasts", "value": "impaired formation of myotubes"}, {"measurement": "myotube formation", "setting": "C2C12 myoblasts; listed as Z-DEVD.fmk", "value": "drastically attenuated"}, {"measurement": "myoblast fusion (mononucleated / fused cells)", "setting": "C2C12 myoblasts", "value": "remained mononucleated and unfused after 4 days"}, {"measurement": "myoblast fusion (mononucleated / fused cells)", "setting": "C2C12 myoblasts; listed as Z-DEVD.fmk", "value": "lack fusion capacity"}, {"measurement": "expression of MEF2C", "setting": "C2C12 myoblasts", "value": "virtually absent"}, {"measurement": "accumulation of myogenin", "setting": "C2C12 myoblasts", "value": "delayed and attenuated accumulation"}, {"measurement": "accumulation of myogenin", "setting": "C2C12 myoblasts; listed as Z-DEVD.fmk", "value": "delayed and is in lower abundance"}, {"measurement": "expression of MEF2C", "setting": "C2C12 myoblasts; listed as Z-DEVD.fmk", "value": "low levels of MEF2C relative to control cells"}, {"measurement": "glial fibrillary acid protein staining (astrocytes)", "setting": "[1]; 48 h differentiation", "value": "showed no staining for astrocytes"}, {"measurement": "myelin basic protein staining (oligodendricytes)", "setting": "[1]; 48 h differentiation", "value": "did not stain positive for oligodendricytes"}, {"measurement": "nestin staining after differentiation", "setting": "[1]; 48 h differentiation", "value": "retain their undifferentiated lineage as demonstrated by the presence of nestin"}, {"measurement": "cell cycling (nestin staining during proliferation)", "setting": "[1]; proliferating striatal stem cells", "value": "does not have an effect on cell cycling"}]}]}
